From patent publication US20120328605A1, “COMPOSITIONS AND USES” (priority 2010, published 2012)
Entries after “also recorded” stand apart in the source; their conditions may differ.

Legend:
APPSwe/PS1 mice = assay: T-water maze; assay type: in vivo
Description: Five groups of APPSwe/PS1 mice received one a week for a period of 12 weeks the following treatment: • Gr1: APPSwe/PS1+NaCl 0.9% n(=20), i.p. injections • Gr4: APPSwe/PS1+CRX527 (20 μg/mouse, 130 μl, n=10), i.p. injections • Gr5: […] (50 μg/mouse, 130 μl, n=10), i.p. injections • Gr8 APPSwe/PS1+AS15 ( 1/10th of human dose, 50 μl, n=10), i.m. injections • Gr9: APPSwe/PS1+AS01B ( 1/10th of human dose, 50 μl, n=10), i.m. injections
Mice were tested during the “light on” phase of the day. Behavioral experimenter was blinded to the genetic and treatment status of animals. To assess hippocampal-dependent spatial learning and memory, mice were trained in the T-water maze task. In this paradigm, we evaluate the mouse's ability to remember the spatial location of submerged platform. The T-maze apparatus (length of stem, 64 cm; length of arms, 30 cm; width, 12 cm; height of walls, 16 cm) was made of clear fiberglass and filled with water (23±1° C.) at a height of 12 cm. A platform (11×11 cm) was placed at the end of the target arm and was submerged 1 cm below the surface. The acquisition phase allows to evaluate animals for left-right spatial learning. During the first two trials, platforms were placed on each arms of the maze to test the spontaneous turning preference of the mouse. After these two trials, the least chosen arm was reinforced by the escape platform. The mice were placed in the stem of the T-maze and choose to swim either left or right until they found the submerged platform and escape to it, to a maximum of 60 s. After reaching the platform, the mice remained on it for 20 s and then were immediately placed back in the maze. […] Repeated trials were presented on the same day up to a maximum of 48 trials. A rest period of at least 10-15 min intervened between each block of 10 trials. A mouse was considered to have learned the task when it made no errors in a block of five consecutive trials. […] The number of trials to reach the criterion (five of five correct choices made on consecutive trials) was measured as well as the latency to find the escape platform.

CD11b+ monocytes = assay: In vivo uptake assay of Aβ42 after immunization or passive immunotherapy; parameters: species or system C57BL/6 mice; antibody-mediated Aβ peripheral uptake: dose or concentration left out as unconfirmed; details: FIG. 22
Description: Mice: C57BL/6 female mice were purchased from Charles River. […]
[…] At day 22, 5 μg per mouse of fluorescent HiLyte Fluor™ 488-labeled Amyloid β 1-42 (Anaspec, Fremont, Calif.) was injected in the tail vein. Preparation of cells: Peripheral blood was drawn from immunized C57BL/6 mice via cardiac puncture with lithium-heparin as anticoagulant, 2 hours after i.v. injection of the Aβ1-42 HiLyte Fluor™ 488 (Day 22). Plasma of pooled blood was decanted and saved for measurement of antibody titres by ELISA. Red blood cell lysis was performed twice with Ammonium Chloride-based Buffer (Sigma, Steinheim, Germany) and cells were counted with the EasyCount™ System (Immunicon).
FACS analysis: 500,000 cells were aliquoted in a 96-well plate, washed once, incubated for 10 min. on ice in the presence of Rat anti-Mouse CD16/CD32 (clone 2.4G2-BD Fc Block™) and further stained for 30 min. with a combination of the following directly conjugated antibodies at their pre-determined optimal concentration: PE-Hamster anti-Mouse CD3 (clone 145-2C11), Rat anti-Mouse CD45R/B220 (clone RA3-6B2), Rat anti-Mouse Ly-6G (clone 1A8), Mouse anti-Mouse NK1.1 (clone PK136), APC-conjugated Rat anti-Mouse CD11b (clone M1/70), PE-Cy7-conjugated Hamster anti-Mouse CD11c (clone HL3), (all from BD PharMingen). Cells were finally washed twice and fixed for 15 min. with a 2% paraformaldehyde solution in PBS. […]

## CCCCCCCCCCC[C@H](CC(=O)N[C@H]1[C@H](OC[C@H](NC(=O)C[C@@H](CCCCCCCCCCC)OCCCCCCCCCC)C(=O)O)O[C@H](CO)[C@@H](OP(=O)(O)O)[C@@H]1OC(=O)C[C@@H](CCCCCCCCCCC)OCCCCCCCCCC)OCCCCCCCCCC [CRX601]
APPSwe/PS1 mice; Example 21: twelve weekly injections, CRX527, CRX601 20 μg i.p., 3D MPL 50 μg i.p., AS01B 1/10th human dose i.m., FIG. 24
  behaviour as assessed by T water maze testing: significant improvements in behaviour
APPSwe/PS1 mice; Example 22, i.m. 12× weekly: CRX601 2 μg, CRX601 2 ug in AS03, 3D MPL 5 ug, AS01B 1/10 human dose, unpaired t-tests, FIG. 27A
  cognitive functions, T-water maze vs PBS-treated control group: significant improvement of their cognitive functions
CD11b+ monocytes; CRX601 20 ug with AS03
  antibody-mediated Aβ uptake, effect of CRX601 when combined with AS03 emulsion: partially quenched
CD11b+ monocytes; single i.m. injection, 24 hrs, Aβ Fluor i.v., 2 hrs
  antibody-mediated Aβ peripheral uptake: highest Aβ uptake; also recorded: Dose-response observed
